According to patent US9296723B2, “NAMPT inhibitors” (AbbVie Inc., priority 2012, dated 2016):

Assays:
[1] = target: T1, NAMPT (Homo sapiens, UniProt P43490); assay: Time-Resolved Fluorescence Resonance Energy Transfer (TR-FRET) Binding Assay of NAMPT; conditions: 6.8 nM NAMPT, 200 nM probe, equilibrated 3 hours, no substrates
Method in brief: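 IC50s come from four-parameter logistic fits of control-normalized Em520/Em495 TR-FRET ratios (Ex 337 nm) against compound concentration. Before reading, enzyme, probe, antibody and compound equilibrated for 3 h at room temperature.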

[2] = target: T1, NAMPT; assay: TR-FRET Binding Assay of NAMPT with PRPP; conditions: 2 nM NAMPT, 2 nM probe, 200 µM PRPP and 2.5 mM ATP, equilibrated 16 hours
Method in brief: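 Substrates present: PRPP at 200 µM and ATP at 2.5 mM, final, alongside 2 nM enzyme, 2 nM tracer and 1 nM terbium anti-His donor in 2% DMSO. A 16-hour equilibration preceded the time-resolved FRET read, allowing compounds to be enzymatically modified.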

[3] = system: PC3 cells; assay: NAMPT Cell Proliferation Assay (Cell Titer Glo); type: cell-based; conditions: Homo sapiens, PC-3, 120 h, incubated 5 days, cell viability
Method in brief: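 Viability measured by Cell Titer Glo luminescence after 5-day exposure of attached PC3 cells to compound, dosed as 10-fold serial dilutions ([…]) in RPMI/10% FBS at 37 °C and 5% CO2. Percent inhibition fitted to sigmoidal dose-response curves for IC50.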

T1 sequence (P43490 whole entry): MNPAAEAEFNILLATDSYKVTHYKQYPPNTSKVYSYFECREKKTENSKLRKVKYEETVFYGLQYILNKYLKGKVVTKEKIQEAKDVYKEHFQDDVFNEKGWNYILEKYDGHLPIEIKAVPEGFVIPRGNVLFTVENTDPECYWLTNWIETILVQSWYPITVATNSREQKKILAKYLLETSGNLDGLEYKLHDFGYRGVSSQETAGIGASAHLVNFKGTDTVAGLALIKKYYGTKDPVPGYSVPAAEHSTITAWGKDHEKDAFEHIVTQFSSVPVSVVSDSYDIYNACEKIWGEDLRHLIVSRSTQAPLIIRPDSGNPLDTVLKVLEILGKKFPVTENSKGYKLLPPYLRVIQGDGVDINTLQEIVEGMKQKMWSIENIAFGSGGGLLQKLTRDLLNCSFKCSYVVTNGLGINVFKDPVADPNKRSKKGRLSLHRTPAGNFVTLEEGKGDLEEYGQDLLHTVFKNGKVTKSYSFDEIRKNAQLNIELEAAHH

Structure (SMILES) | IC50 [1] [nM] | IC50 [2] [nM] | IC50 [3] [nM]
O=C(Nc1ccc(O[C@@H]2CCN(C(=O)c3ccsc3)C2)cc1)N1CC(c2cccnc2)C1 [Example 308, 3-(pyridin-3-yl)-N-(4-{[(3R)-1-(thiophen-3-ylcarbonyl)pyrrolidin-3-yl]oxy}phenyl)azetidine-1-carboxamide] | 24.2 | 0.293 | 9.61
CC1(C(=O)N2CC[C@@H](Oc3ccc(NC(=O)N4CC(c5cccnc5)C4)cc3)C2)CC1 [Example 309, N-[4-({(3R)-1-[(1-methylcyclopropyl)carbonyl]pyrrolidin-3-yl}oxy)phenyl]-3-(pyridin-3-yl)azetidine-1-carboxamide] | 32.8 | 0.262 | 11.1
Cc1ccsc1C(=O)N1CC[C@@H](Oc2ccc(NC(=O)N3CC(c4cccnc4)C3)cc2)C1 [Example 310, N-[4-({(3R)-1-[(3-methylthiophen-2-yl)carbonyl]pyrrolidin-3-yl]oxy}phenyl)-3-(pyridin-3-yl)azetidine-1-carboxamide] | 4.54 | 0.297 | 2.76
O=C(CCC(F)(F)F)N1CC[C@@H](Oc2ccc(NC(=O)N3CC(c4cccnc4)C3)cc2)C1 [Example 311, 3-(pyridin-3-yl)-N-(4-{[(3R)-1-(4,4,4-trifluorobutanoyl)pyrrolidin-3-yl]oxy}phenyl)azetidine-1-carboxamide] | 144 | 0.592 | 47.1
CN1CCN(CC(=O)N2CC[C@@H](Oc3ccc(NC(=O)N4CC(c5cccnc5)C4)cc3)C2)CC1 [Example 312, N-[4-({(3R)-1-[(4-methylpiperazin-1-yl)acetyl]pyrrolidin-3-yl}oxy)phenyl]-3-(pyridin-3-yl)azetidine-1-carboxamide] | 311 | 0.29 | 211
O=C1CC[C@@H](C(=O)N2CC[C@@H](Oc3ccc(NC(=O)N4CC(c5cccnc5)C4)cc3)C2)N1 [Example 313, N-(4-{[(3R)-1-(5-oxo-L-prolyl)pyrrolidin-3-yl]oxy}phenyl)-3-(pyridin-3-yl)azetidine-1-carboxamide] | 369 | 0.187 | 4590
CCOCCC(=O)N1CC[C@@H](Oc2ccc(NC(=O)N3CC(c4cccnc4)C3)cc2)C1 [Example 314, N-(4-{[(3R)-1-(3-ethoxypropanoyl)pyrrolidin-3-yl]oxy}phenyl)-3-(pyridin-3-yl)azetidine-1-carboxamide] | 110 | 0.178 | 83.9
O=C(CC1CCCCC1)N1CC[C@@H](Oc2ccc(NC(=O)N3CC(c4cccnc4)C3)cc2)C1 [Example 317, N-(4-{[(3R)-1-(cyclohexylacetyl)pyrrolidin-3-yl]oxy}phenyl)-3-(pyridin-3-yl)azetidine-1-carboxamide] | 29.9 | 0.207 | 55.4
CC(=O)N[C@@H](CC(C)C)C(=O)N1CC[C@@H](Oc2ccc(NC(=O)N3CC(c4cccnc4)C3)cc2)C1 [Example 318, N-(4-{[(3R)-1-(N-acetyl-L-leucyl)pyrrolidin-3-yl]oxy}phenyl)-3-(pyridin-3-yl)azetidine-1-carboxamide] | 125 | 0.419 | 156
CCC(=O)N1CC[C@@H](Oc2ccc(NC(=O)N3CC(c4cccnc4)C3)cc2)C1 [Example 319, N-(4-{[(3R)-1-propanoylpyrrolidin-3-yl]oxy}phenyl)-3-(pyridin-3-yl)azetidine-1-carboxamide] | 70.6 | 0.426 | 30.7
COCCOCC(=O)N1CC[C@@H](Oc2ccc(NC(=O)N3CC(c4cccnc4)C3)cc2)C1 [Example 320, N-[4-({(3R)-1-[(2-methoxyethoxy)acetyl]pyrrolidin-3-yl}oxy)phenyl]-3-(pyridin-3-yl)azetidine-1-carboxamide] | 208 | 0.407 | 155
O=C(CCN1CCOCC1)N1CC[C@@H](Oc2ccc(NC(=O)N3CC(c4cccnc4)C3)cc2)C1 [Example 321, N-[4-({(3R)-1-[3-(morpholin-4-yl)propanoyl]pyrrolidin-3-yl}oxy)phenyl]-3-(pyridin-3-yl)azetidine-1-carboxamide] | 176 | 0.246 | 119
Cc1ccc(C(=O)N2CC[C@@H](Oc3ccc(NC(=O)N4CC(c5cccnc5)C4)cc3)C2)s1 [Example 323, N-[4-({(3R)-1-[(5-methylthiophen-2-yl)carbonyl]pyrrolidin-3-yl}oxy)phenyl]-3-(pyridin-3-yl)azetidine-1-carboxamide] | 41.4 | 0.194 | 51
O=C(Nc1ccc(O[C@@H]2CCN(C(=O)c3cccs3)C2)cc1)N1CC(c2cccnc2)C1 [Example 324, 3-(pyridin-3-yl)-N-(4-{[(3R)-1-(thiophen-2-ylcarbonyl)pyrrolidin-3-yl]oxy}phenyl)azetidine-1-carboxamide] | 20.7 | 0.36 | 6.24
Cn1cccc1C(=O)N1CC[C@@H](Oc2ccc(NC(=O)N3CC(c4cccnc4)C3)cc2)C1 [Example 325, N-[4-({(3R)-1-[(1-methyl-1H-pyrrol-2-yl)carbonyl]pyrrolidin-3-yl}oxy)phenyl]-3-(pyridin-3-yl)azetidine-1-carboxamide] | 18.8 | 0.362 | 11.3
O=C(Nc1ccc(O[C@@H]2CCN(C(=O)c3ccco3)C2)cc1)N1CC(c2cccnc2)C1 [Example 326, N-(4-{[(3R)-1-(furan-2-ylcarbonyl)pyrrolidin-3-yl]oxy}phenyl)-3-(pyridin-3-yl)azetidine-1-carboxamide] | 32.2 | 0.294 | 16.5
CCOCC(=O)N1CC[C@@H](Oc2ccc(NC(=O)N3CC(c4cccnc4)C3)cc2)C1 [Example 328, N-(4-{[(3R)-1-(ethoxyacetyl)pyrrolidin-3-yl]oxy}phenyl)-3-(pyridin-3-yl)azetidine-1-carboxamide] | 159 | 0.344 | 52.7
CC(C)(C)CC(=O)N1CC[C@@H](Oc2ccc(NC(=O)N3CC(c4cccnc4)C3)cc2)C1 [Example 329, N-(4-{[(3R)-1-(3,3-dimethylbutanoyl)pyrrolidin-3-yl]oxy}phenyl)-3-(pyridin-3-yl)azetidine-1-carboxamide] | 30.4 | 0.276 | 14.5
CCC(C)(C)C(=O)N1CC[C@@H](Oc2ccc(NC(=O)N3CC(c4cccnc4)C3)cc2)C1 [Example 330, N-(4-{[(3R)-1-(2,2-dimethylbutanoyl)pyrrolidin-3-yl]oxy}phenyl)-3-(pyridin-3-yl)azetidine-1-carboxamide] | 21.9 | 0.364 | 12.3
COCC(=O)N1CC[C@@H](Oc2ccc(NC(=O)N3CC(c4cccnc4)C3)cc2)C1 [Example 331, N-(4-{[(3R)-1-(methoxyacetyl)pyrrolidin-3-yl]oxy}phenyl)-3-(pyridin-3-yl)azetidine-1-carboxamide] | 81 | 0.351 | 42.4
O=C(Nc1ccc(O[C@@H]2CCN(C(=O)C3CCCCC3)C2)cc1)N1CC(c2cccnc2)C1 [Example 332, N-(4-{[(3R)-1-(cyclohexylcarbonyl)pyrrolidin-3-yl]oxy}phenyl)-3-(pyridin-3-yl)azetidine-1-carboxamide] | 61.7 | 0.474 | 22.2
